Results from BigSolDB 2.1.

OC[C@H]1O[C@@H](c2ccc(Cl)c(Cc3ccc(O[C@H]4CCOC4)cc3)c2)[C@H](O)[C@@H](O)[C@@H]1O
solubility (mole fraction)
Conditions	in DMF	in acetonitrile	in ethanol	in ethyl acetate	in ethylene glycol	in formamide	in methanol	in n-butanol	in n-propanol
278.15 K	0.00117	6.19e-07	2.33e-06	7.16e-07	1.16e-05	8.05e-05	1.77e-05	1.81e-06	1.59e-06
283.15 K	0.00124	9.85e-07	3.77e-06	1.07e-06	1.48e-05	9.2e-05	2.48e-05	2.73e-06	2.43e-06
288.15 K	0.00129	1.46e-06	4.84e-06	1.42e-06	1.91e-05	0.000108	3e-05	4.04e-06	3.39e-06
293.15 K	0.00134	1.97e-06	6.6e-06	1.97e-06	2.43e-05	0.000122	3.65e-05	5.9e-06	4.54e-06
298.15 K	0.00142	2.62e-06	8.45e-06	2.56e-06	3.41e-05	0.000143	4.46e-05	8.49e-06	6.09e-06
303.15 K	0.00149	3.52e-06	1.1e-05	3.12e-06	4.21e-05	0.000174	5.54e-05	1.2e-05	7.88e-06
308.15 K	0.00158	4.87e-06	1.4e-05	4.27e-06	5.91e-05	0.000202	6.9e-05	1.62e-05	1.04e-05
313.15 K	0.00165	6.15e-06	1.85e-05	5.56e-06	7.01e-05	0.000248	8.53e-05	2.21e-05	1.43e-05
318.15 K	0.00171	8.16e-06	2.43e-05	6.89e-06	8.59e-05	0.000303	0.00011	3.02e-05	1.99e-05
